Reference: patent US8258173B2, “Melatonin derivatives and their use as antioxidants” (University of Sunderland, priority 2006, dated 2012)
Like-named read-outs stand apart in the source and are kept apart here.

Tests used:
[1] = test system: lipid peroxidation in bovine brain extract liposomes (hydroxyl radicals); experiment: Antioxidant test, TBA assay (lipid peroxidation); format: biochemical; conditions: for IC50: brain extract liposomes, FeCl3/ascorbic acid, 37° C. 30 min, absorbance 532 nm; for antioxidant activity (in words): scavenging hydroxyl radicals, protection against lipid peroxidation
Procedure: Ascorbic acid and propylgallate were purchased from Aldrich. N-Butanol and ethanol were purchased from BDH. Butylated hydroxytoluene (BHT), bovine brain extract, FeCl3, thiobarbituric acid (TBA) and PBS (phosphate buffered saline) tablets were purchased from Sigma. For spectroscopic measurements, a UNICAM UVNIS Spectrometer (UV2) was used. A well-controlled water bath was utilized for incubating the test system at the required temperatures. Plastic falcon tubes were used to accommodate the assay. Accurate pipettes were used to dispense the reagents.
The following liposomes and reagents were prepared in order to carry out the experiments. • 1. Brain extract (50 mg) was weighed into a clean universal container. About 7 glass balls and 10 cm^3 of PBS were added. The mixture was sonicated in an ice-water bath until the lipid was suspended and the suspension was homogeneous and milky in appearance. The suspension was kept cool during the sonication, although care was taken not to overfill the bath with ice as the sonication becomes relatively ineffective. • 2. Ascorbic acid (0.0176 g) was dissolved in deionised water and diluted in 100 cm^3 of volumetric flask. • 3. Ferric chloride hexahydrate (0.0270 g) was dissolved in deionized water and diluted in 100 cm^3 of volumetric flask. • 4. Sodium hydroxide (1 g) was dissolved in 500 cm^3 of deionized water. • 5. Phosphate buffered saline was prepared (PBS, pH=7.4). • 6. HCl (338 cm^3, 37%) was diluted with 162 cm^3 deionized water to give 500 cm^3 of 25% HCl. • 7. BHT (5 g) was dissolved in 250 cm^3 ethanol. • 8. TBA (5 g) was added to 500 cm^3, 50 mM NaOH, and the solution was heated with stirring to dissolve all the TBA. • 9. PG (0.1061 g) was dissolved in 500 cm^3 deionized water. • 10. A stock solution of test compound at 10 mg/cm^3 was prepared, the concentration depended on the estimated activity of the substance, and serial dilutions were made to obtain 5.0, 2.5, 1.25, 0.625, 0.3125 and 0.15625 mg/cm^3. The stock solution and these six dilutions were screened in the lipid peroxidation—TEA test, in attempt to obtain a dose response curve for antioxidant efficacy against concentration for the substance.
Sixty-eight centrifuge tubes were numbered. • 1. Test substance (0.1 cm^3) was added to tubes; 10 mg/cm^3 to No. 13-20 of tubes, 5 mg/cm^3 to No. 21-28, 2.5 mg/cm^3 to No. 29-36, 1.25 mg/cm^3 to No. 37-44, 0.625 mg/cm^3 to No. 45-52, 0.3125 mg/cm^3 to No. 53-60, 0.15625 mg/cm^3 to No. 61-68. • 2. PG (0.1 cm^3) was added to 9-12. • 3. Ethanol (0.1 cm^3) was added to No. 5-8. • 4. Deionized water (0.3 cm^3) was added to No. 1-4, deionized water (0.4 cm^3) was added to No. 17-20, 25-28, 33-36, 41-44, 49-52, 57-60, and 65-68. • 5. Liposome (0.2 cm^3) was added to No. 1-4, 5-8, 9-12, 13-16, 21-24, 29-32, 37-40, 45-48, 53-56 and 61-64. • 6. PBS (0.5 cm^3) was added to all tubes. • 7. Ferric chloride (0.1 cm^3, 1 mM) was added to No. 5-8, 9-12, 13-16, 21-24, 29-32, 37-40, 45-48, 53-56, and 61-64. • 8. Ascorbic acid (0.1 cm^3, 1 mM) was added to No. 5-8, 9-12, 13-16, 21-24, 29-32, 37-40, 45-48, 53-56 and 61-64. • 9. The tubes were incubated at 37° C. for 30 min. • 10. BHT (0.1 cm^3, 2%), TBA (0.5 cm^3, 1%) and HCl (0.5 cm^3, 25%) were added to all tubes. • 11. The tubes were heated at 85-90° C. for […]. • 12. The tubes were removed from heater and cooled. • 13. N-Butanol (2.5 cm^3) was added to all tubes. The tubes were then shaken to mix and spun at 3500 rpm at room temperature for 10 min. • 14. N-Butanol (2.5 cm^3) was removed and placed in cuvettes. • 15. Absorbance at 532 nm on a spectrophotometer was recorded, using n-butanol as blank. • 16. The mean and standard deviation were calculated. The % inhibition was calculated using equation (1).
[formula] • All data are expressed and mean±SEM (n=4). % inhibition was used to construct the graph and calculate IC50.

[2] = test system: HPV-16 immortalized human keratinocyte cell line; experiment: Cell line test (MTT), keratinocyte proliferation; format: cell-based; conditions: for IC50: read-out: MTT assay IG50; for anti-proliferative activity (in words): HPV-16 immortalized keratinocyte proliferation
Description: 3-[4′,5′-Dimethylthiazol-2′-yl]-2,5-diphenyltetrazolium bromide (MTT), dimethyl sulphoxide (DMSO), isopropranol, foetal calf serum, and trypan blue were purchased from Sigma-Aldrich. Trypsin 250 was purchased from DIFCO. Ethylenediaminetetraacetic acid (EDTA), glucose, sodium phenol red, sodium chloride, potassium chloride, sodium hydrogen carbonate, potassium dihydrogen phosphate, and disodium hydrogen phosphate were purchased from BDH. Keratinocyte-SFM was purchased from GIBCO. For spectroscopic measurements, MRX Microplate Reader was used, which was controlled by Revelation Version 3.04.
The following solutions were prepared for use in the cell line test (MTT). • 1. Sodium chloride (8 g), potassium chloride (0.2 g), disodium hydrogen phosphate (1.15 g) and potassium dihydrogen phosphate (0.2 g) were dissolved in deionized water (1 L). This PBS solution was warmed to 37° C. at the time of use. • 2. Trypsin 250 (2.5 g), EDTA (0.2 g), glucose (1.0 g), potassium chloride (0.4 g), sodium chloride (8.0 g), sodium phenol red (0.002 g), and sodium hydrogen carbonate (0.58 g) were dissolved in deionized water (1 L). This solution was warmed to 37° C. at the time of use. • 3. Trypsin inhibitor solution was created by using feotal calf (1 ml) and was diluted in 100 ml of PBS. • 4. MTT powder (0.125 g) was dissolved in PBS buffer (25 ml) to give 5 mg/ml of MTT stock solution, which was stored at −20° C. and wrapped in foil to protect from light to create MTT stock solution. • 5. MTT stock solution was defrosted and diluted 1 in 10 in PBS buffer to give 0.5 mg/ml of working solution, which was prepared at the time of use to create an MTT working solution. • 5. Trypan blue solution was created by dissolving Trypan blue (0.04 g) in deionized water (10 ml).
The cell culture consisted of an HPV-16 immortalized human keratinocyte cell line from American Type Culture Collection (ATCC).
Cells were cultured in Serum-Free Keratinocyte Medium (Keratinocyte-SFM) supplemented with recombinant epidermal growth factor (rEGF) and bovine pituitary extract (BPE) in a T-75 flask under conditions of 5% C02 at 37° C. Fluid in the flask was changed with fresh complete medium every 3 days.
When cells grew to 60-80% confluence as determined under a microscope, the flask was washed with PBS. Small amount of trypsin-EDTA solution (1-2 ml) was added to the flask and incubated for 5 minutes at 37° C. When approximately 90% of the cells were dislodged, trypsin inhibitor solution (10 ml) was added to stop trypsin reaction. The cells were spun at 500 rpm for 10 minutes at room temperature. The cell pellet was gently resuspended in 10 ml of media. The basal cells were counted with a haemocytometer by adding trypan blue solution to determine viable cells. The cells were adjusted the density to 1×10^5 cells/mL in media.
A stock solution of each compound was prepared by dissolving compound (20 mg) in DMSO (1 ml), to give 20 mg/mL of stock solution.
A working solution was prepared by diluting a stock solution (20 μl) into media (1.98 ml) to give 200 μg/mL of working solution.
The following steps were performed to carry out the MMT experiment. 100 μl of resuspended cell suspension was added to test wells in 96-well plate, omitting column 11. Media was aspirated from each well after plate was incubated for 24 hours at 37° C., 5% CO2, then wells were washed with PBS. 100 μl of media containing 1% DMSO was added to each test well, omitting column 2. 200 μl of working solution of compound was added to each the wells, B2 to G2. 100 μl of solution was transferred to perform serial dilutions across the plate from column 2 up to column 9, and 100 μl of solution was discard from column 9. The plate was incubated for 3 days at 37° C., 5% C02. Media was removed, and wells were washed with PBS. Then 200 μl of MTT working solution was added to each well. After the plate was incubated for 2 hours at 37° C., MTT solution was removed and wells were washed with PBS. […]

[3] = Homo sapiens, Keratinocyte, 72 h, HPV-16 immortalized human keratinocytes, 3 days incubation
[4] = Homo sapiens, Keratinocyte, 72 h
[5] = HPV-16 immortalized human keratinocytes, 3 days incubation

| Molecule | IC50 [1] [µM] | IC50 [2, 3] [µM] | antioxidant activity (in words) [1] | anti-proliferative activity (in words) [2] | IC50 [2, 4] [µM] | IC50 [2, 5] [µM] |
| --- | --- | --- | --- | --- | --- | --- |
| COc1cc(OC)c2[nH]ccc2c1C1C=NN(C(C)=O)C1 (stereo not drawn) [1-Acetyl-4,5-dihydro-4-(5′,7′-dimethoxyindol-4′-yl)-1H-pyrazole] | 1790 | 355 |  |  |  |  |
| COc1ccc2[nH]cc(C3C=NN(C(C)=O)C3)c2c1 (stereo not drawn) [1-Acetyl-4,5-dihydro-4-(5′-methoxyindol-3′-yl)-1H-pyrazole] | 210 | 150 | almost the same antioxidant activity as melatonin | much more activity than melatonin |  |  |
| COc1ccc2[nH]cc(C=C[N+](=O)[O-])c2c1OC [4,5-Dimethoxy-3-(2-nitroethenyl)-indole] | 440 | 22 |  | very low IG50 values comparative to dithranol |  |  |
| COc1ccc2[nH]cc(C(C[N+](=O)[O-])C[N+](=O)[O-])c2c1OC [4,5-Dimethoxy-3-bis(nitromethyl)methylindole] | 1910 |  |  |  | 126 |  |
| COc1ccc2[nH]cc(CCN)c2c1OC [4,5-Dimethoxytryptamine] | 97 | < 100 |  |  |  | 82.5 |
| COc1cc(OC)c2[nH]ccc2c1CCN [4-(2-Aminoethyl)-5,7-dimethoxyindole] | 51 | < 100 |  |  |  | 53.9 |
| COc1ccc2[nH]cc(CCNC(C)=O)c2c1OC [4-Methoxymelatonin] | 280 | 119 | almost the same antioxidant activity as melatonin | much more activity than melatonin |  |  |
| COc1cc(OC)c2[nH]cc(C=C[N+](=O)[O-])c2c1 [5,7-Dimethoxy-3-(2-nitroethenyl)-indole] | 810 | 13.5 |  | very low IG50 values comparative to dithranol |  |  |
| COc1cc(OC)c2[nH]cc(C(C[N+](=O)[O-])C[N+](=O)[O-])c2c1 [5,7-Dimethoxy-3-bis(nitromethyl)methylindole] | 1660 |  |  | anti-proliferative effect | 20.2 |  |
| COc1cc(OC)c2[nH]ccc2c1C=C[N+](=O)[O-] [5,7-Dimethoxy-4-(2-nitroethenyl)-indole] | 600 | 6.62 |  | very low IG50 values comparative to dithranol |  |  |
| COc1cc(OC)c2[nH]ccc2c1C(C[N+](=O)[O-])C[N+](=O)[O-] [5,7-Dimethoxy-4-{2′-nitro-1′-(nitromethyl)ethyl}indole] | 3970 |  |  |  | 145 |  |
| COc1ccc2[nH]cc(C=C[N+](=O)[O-])c2c1 [5-Methoxy-3-(2-nitroethenyl)-indole] | 2510 | 15.5 |  | anti-proliferative effect |  |  |
| COc1ccc(N)c(C(=O)CCNC(C)=O)c1 [AMK, reference compound] | 280 |  |  |  |  | 408 |
| COc1ccc2[nH]cc(CCNC(C)=O)c2c1 [Melatonin] |  | > 862 |  | inactive |  |  |
| CC(=O)NCCc1c[nH]c2ccc(O)cc12 [N-Acetylseratonin, N-acetylserotonin, reference compound] | 750 |  |  | inactive |  | > 917 |
| NCCc1c[nH]c2ccc(O)cc12 [serotonin, reference compound] |  |  |  | inactive |  |  |
| N-ethylformylmelatonin |  |  | almost the same antioxidant activity as melatonin | much more activity than melatonin |  |  |
